According to patent US10363305B2, “Anti-ganglioside compound for targeting cancer and generating antibodies” (REALIST PHARMA, INC., priority 2013, dated 2019):

How the values were obtained:
[1] = Water solubility; format: physicochemical
Experimental: The carbohydrates were synthesized as described (Gilbert et al., 2002, J Biol Chem, 277: 327), by modification of the process for phenylthio-GD2 (Tong et al., 2010, Cehm Biol, 17: 183) in which the thio-phenyl analog originally reported was substituted with an p-aminophenyl-(β-D-lactopyranoside (AP-Lac), from Toronto Research Chemicals), for subsequent conjugation to the dendrimer (see below). AP-GD2 was water soluble (>20 mg/ml), and was purified to >99% purity by size-exclusion (Superdex 30 16 mm×85 cm column, GE Health Care). The measured molecular weight of AP-GD2 was 1218 g/mol and corresponded to expected values. Structures were verified by 1D and 2D NMR spectroscopy and mass spectrometry (EI-MS) (see FIGS. 2A and B).

[2] = system: Jurkat cells; experiment: Mixed lymphocyte reaction, 3H-thymidine incorporation, Jurkat stimulators; format: cell-based; details: Jurkat cells alone
Experimental: (§1) EL4-GD2^+ cells and control Jurkat cells were treated with 25 μg/ml Mitomycin (Sigma) for 1 hr to arrest their proliferation. After the cells were washed three times with media to remove Mitomycin, they were plated in 96-well plates at 2×10^5 cells/well. Single cell suspensions of splenocytes were obtained from twice immunized (as above) and from vehicle injected control mice. Cells were separated following the protocol of the EASYSEP™ magnet (Stem Cell Tech). […] The T cells were plated at a ratio of 10:1 with Mitomycin-treated EL4 or Jurkat cells. As controls, cultures of T cells alone (no stimulating tumor cells) or T cells treated with ConcanavilinA were used. After 5 days of culture, 0.1μCi/well ^3H-thymidine (Sigma-Aldrich) was added. DNA-incorporated ^3H-thymidine was counted by liquid scintillation, and data are reported as average cpm±sd.

[3] = system: EL4-GD2+ cells; experiment: Mixed lymphocyte reaction, 3H-thymidine incorporation, EL4-GD2+ stimulators; format: cell-based, mouse; details: EL4-GD2+ cells alone
Experimental: as §1

| SMILES | solubility [1] [mg/mL] | 3H-thymidine incorporation of treated stimulator cells [2] [cpm] | 3H-thymidine incorporation of treated stimulator cells [3] [cpm] |
| --- | --- | --- | --- |
| CC(=O)NC1C(OC2C(CO)OC(OC3C(CO)OC(Oc4ccc(N)cc4)C(O)C3O)C(O)C2OC2(C(=O)O)CC(O)C(NC(C)=O)C([C@H](O)C(CO)OC3(C(=O)O)CC(O)C(NC(C)=O)C([C@H](O)[C@H](O)CO)O3)O2)OC(CO)C(O)C1O (stereo partly drawn) [AP-GD2] | > 20 |  |  |
| CO[C@@]12[C@H](COC(N)=O)C3=C(C(=O)C(C)=C(N)C3=O)N1C[C@@H]1N[C@@H]12 [Mitomycin] |  | 107±5 | 188±4 |
